Results reported in patent US9108930B2, “N1- and N2-carbamoyl-1,2,3-triazole serine hydrolase inhibitors and methods” (The Scripps Research Institute, priority 2011, dated 2015).

Key:
ACHE = target: T1, ACHE (Mus musculus, UniProt P21836); assay: ABPP-SILAM of brain tissue from treated mice; format: in vivo; conditions: mouse brain proteome of treated mice
T1 construct: from tissue; host or cells: mouse brain
Experimental: (§1) The potency and selectivity of 1,2,3-triazole ureas in vivo also was investigated. Mice were treated with the APEH inhibitor AA74-1 at various doses (0.2-1.6 mg/kg; PEG300 or 18:1:1 saline/ethanol/emulphor intraperitoneally) and sacrificed after 4 h. Brains and hearts were removed, homogenized, and analyzed by gel-based competitive ABPP. […] Finally, the possibility of extending ABPP-SILAC for the characterization of inhibitor selectivity in vivo was explored by taking advantage of recently described protocols for stable isotope labeling in mammals (SILAM). In this approach, brain tissues from vehicle- and AA74-1-treated mice were separately mixed with equivalent amounts of brain tissue from ‘heavy’ amino acid-fed mice, and the samples were then labeled with FP-biotin, enriched by avidin chromatography, analyzed by LC-MS, and SH activities quantified by measuring the ratio-of-ratios for observed peptide signals. […] The ratio-of-ratio signals for APEH indicated greater than 90% inhibition of this enzyme in AA74-1-treated animals (FIG. 5b, top), consistent with average spectral count values (14 and 1 spectral counts for APEH in vehicle-treated versus AA74-1-treated mice, respectively; FIG. 5b, bottom). […] ACHE, an enzyme that is targeted by other reported NHU inhibitors, was not inhibited by AA74-1 in either mouse brain (FIG. 5b) or transfected cell (FIG. 16) proteomes.
(§2) C57BL6 mice were labeled with ^15N. Briefly, each mouse was fed an ^15N-labeled protein diet starting immediately after weaning which continued for the next 10 weeks. The ^15N-labeled diet was generated by combining spirulina biomass ^15N-labeled (Cambridge Isotopes) with protein-free diet powder (Harlan TD 93328) in a 1:2 (wt/wt) ratio and an appropriate amount of H2O to generate a dough. This dough is then cut into 2-cm thick pellets and dried at 60° C. for 2-4 h and then at 35° C. overnight using an Excalibur food dehydrator. These ^15N-labeled food pellets are then used to replace normal chow. […] Brains were determined to be 95% labeled by mass spectrometry with ^15N and used for quantitative analysis. […]

APEH = target: T2, APEH (Mus musculus, UniProt Q8R146); assay: ABPP-SILAM of brain tissue from treated mice; format: in vivo; conditions: treated mice (vehicle 14)
T2 sequence (Q8R146 1-732): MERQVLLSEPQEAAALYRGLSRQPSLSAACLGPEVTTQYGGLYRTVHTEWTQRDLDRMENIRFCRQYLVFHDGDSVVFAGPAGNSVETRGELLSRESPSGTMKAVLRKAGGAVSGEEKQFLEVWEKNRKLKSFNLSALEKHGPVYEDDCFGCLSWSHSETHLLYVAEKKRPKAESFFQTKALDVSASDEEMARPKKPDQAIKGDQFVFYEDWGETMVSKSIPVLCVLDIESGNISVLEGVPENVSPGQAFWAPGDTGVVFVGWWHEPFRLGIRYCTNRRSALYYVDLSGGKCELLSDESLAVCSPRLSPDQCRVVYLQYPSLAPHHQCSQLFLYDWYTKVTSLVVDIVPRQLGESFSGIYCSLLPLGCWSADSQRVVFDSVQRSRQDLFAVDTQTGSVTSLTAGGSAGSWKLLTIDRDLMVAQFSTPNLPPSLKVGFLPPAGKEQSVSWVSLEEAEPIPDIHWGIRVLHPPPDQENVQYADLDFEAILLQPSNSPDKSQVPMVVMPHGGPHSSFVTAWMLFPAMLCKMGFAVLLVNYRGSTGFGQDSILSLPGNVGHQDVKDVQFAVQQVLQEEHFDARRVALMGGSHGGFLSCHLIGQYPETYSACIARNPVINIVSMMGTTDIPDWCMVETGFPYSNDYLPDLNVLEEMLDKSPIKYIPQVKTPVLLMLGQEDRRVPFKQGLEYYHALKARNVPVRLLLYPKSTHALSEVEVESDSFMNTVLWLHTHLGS
Experimental: as §1, §2

PREPL = target: T3, PREPL (Mus musculus, UniProt Q8C167); assay: ABPP-SILAM of brain tissue from treated mice; format: in vivo; conditions: may not represent actual changes
T3 construct: from tissue; host or cells: mouse brain
T3 sequence (Q8C167 whole entry): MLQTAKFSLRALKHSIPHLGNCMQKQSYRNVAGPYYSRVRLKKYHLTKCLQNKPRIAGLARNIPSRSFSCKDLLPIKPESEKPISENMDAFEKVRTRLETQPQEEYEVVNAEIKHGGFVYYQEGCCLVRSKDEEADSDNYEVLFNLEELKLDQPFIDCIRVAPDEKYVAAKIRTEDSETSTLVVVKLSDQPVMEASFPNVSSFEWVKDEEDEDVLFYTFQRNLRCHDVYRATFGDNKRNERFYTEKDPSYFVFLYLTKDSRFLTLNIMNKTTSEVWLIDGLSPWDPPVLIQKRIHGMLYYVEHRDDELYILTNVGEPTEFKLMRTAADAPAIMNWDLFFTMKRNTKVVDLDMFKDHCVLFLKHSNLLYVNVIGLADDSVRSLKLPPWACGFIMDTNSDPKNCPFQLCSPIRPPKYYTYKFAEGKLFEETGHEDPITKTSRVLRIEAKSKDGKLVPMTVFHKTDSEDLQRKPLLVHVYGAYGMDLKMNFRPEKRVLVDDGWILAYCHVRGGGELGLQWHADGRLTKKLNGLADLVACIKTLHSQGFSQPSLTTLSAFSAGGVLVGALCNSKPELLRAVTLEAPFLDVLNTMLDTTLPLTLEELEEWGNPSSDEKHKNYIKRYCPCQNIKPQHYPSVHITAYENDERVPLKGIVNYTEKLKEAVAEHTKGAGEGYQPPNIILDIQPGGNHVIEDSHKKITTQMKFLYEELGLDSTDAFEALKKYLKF
Experimental: as §1, §2

rat APEH = target: T4, rat APEH (Rattus norvegicus, UniProt P13676); assay: Competitive ABPP, soluble fraction of rat neuroblastoma (B103) cells; format: biochemical
T4 construct: endogenous in cells; host or cells: B103 rat neuroblastoma cells (soluble fraction)
T4 sequence (P13676 whole entry): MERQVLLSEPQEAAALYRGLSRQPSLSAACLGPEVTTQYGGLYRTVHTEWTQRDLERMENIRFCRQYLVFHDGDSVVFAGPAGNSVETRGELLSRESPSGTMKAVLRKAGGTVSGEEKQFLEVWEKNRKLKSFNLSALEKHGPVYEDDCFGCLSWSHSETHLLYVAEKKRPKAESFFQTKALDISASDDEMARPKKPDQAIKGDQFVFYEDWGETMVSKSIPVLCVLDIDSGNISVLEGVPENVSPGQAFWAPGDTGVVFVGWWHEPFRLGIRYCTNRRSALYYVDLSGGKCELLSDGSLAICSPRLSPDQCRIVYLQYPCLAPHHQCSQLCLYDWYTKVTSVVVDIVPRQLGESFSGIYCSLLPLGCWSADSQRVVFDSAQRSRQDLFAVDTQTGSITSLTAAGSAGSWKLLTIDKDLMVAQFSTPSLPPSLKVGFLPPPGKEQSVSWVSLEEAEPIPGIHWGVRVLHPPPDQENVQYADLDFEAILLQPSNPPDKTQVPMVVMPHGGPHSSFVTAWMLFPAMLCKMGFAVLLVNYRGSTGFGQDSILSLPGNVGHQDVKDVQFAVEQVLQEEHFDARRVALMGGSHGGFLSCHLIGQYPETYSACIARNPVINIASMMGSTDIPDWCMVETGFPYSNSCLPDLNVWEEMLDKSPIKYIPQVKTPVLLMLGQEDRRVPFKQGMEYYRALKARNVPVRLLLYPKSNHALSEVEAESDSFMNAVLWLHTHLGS
Experimental: The soluble fractions of human ovarian (SKOV3), melanoma (C8161), and breast (MDA-MB-231) cancer cells, as well as rat neuroblastoma (B103) cells were treated with 30 nM AA74-1 or DMSO for 30 minutes at 37° C., after which the samples were analyzed by competitive ABPP. Inhibited APEH is highlighted with boxes. Note that other SHs detected in human and mouse proteomes were not inhibited by AA74-1.

DAGLB = target: T5, DAGLB (Mus musculus, UniProt Q91WC9); assay: ABPP-SILAC in Neuro2A cells; conditions: about 4 hours; 25 nM KT172, 50 nM KT109
T5 sequence (Q91WC9 1-669): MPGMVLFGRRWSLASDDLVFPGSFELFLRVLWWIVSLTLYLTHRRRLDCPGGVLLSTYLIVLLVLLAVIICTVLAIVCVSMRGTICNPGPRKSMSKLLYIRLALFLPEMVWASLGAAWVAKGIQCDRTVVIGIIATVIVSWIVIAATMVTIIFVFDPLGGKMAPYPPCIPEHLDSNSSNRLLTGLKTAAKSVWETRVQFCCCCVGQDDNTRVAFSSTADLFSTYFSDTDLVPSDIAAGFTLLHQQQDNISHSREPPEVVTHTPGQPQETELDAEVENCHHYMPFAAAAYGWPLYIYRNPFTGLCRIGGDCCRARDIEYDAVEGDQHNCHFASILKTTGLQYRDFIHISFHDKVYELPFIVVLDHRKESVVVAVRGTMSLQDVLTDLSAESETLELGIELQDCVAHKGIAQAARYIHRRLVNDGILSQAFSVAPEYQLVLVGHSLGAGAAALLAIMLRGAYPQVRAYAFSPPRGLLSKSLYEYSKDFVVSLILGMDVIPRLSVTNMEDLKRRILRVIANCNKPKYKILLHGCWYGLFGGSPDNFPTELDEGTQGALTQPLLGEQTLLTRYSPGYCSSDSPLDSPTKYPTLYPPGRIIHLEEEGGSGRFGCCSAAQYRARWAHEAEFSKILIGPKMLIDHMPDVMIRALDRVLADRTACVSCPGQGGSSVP

T1 sequence (P21836 32-614): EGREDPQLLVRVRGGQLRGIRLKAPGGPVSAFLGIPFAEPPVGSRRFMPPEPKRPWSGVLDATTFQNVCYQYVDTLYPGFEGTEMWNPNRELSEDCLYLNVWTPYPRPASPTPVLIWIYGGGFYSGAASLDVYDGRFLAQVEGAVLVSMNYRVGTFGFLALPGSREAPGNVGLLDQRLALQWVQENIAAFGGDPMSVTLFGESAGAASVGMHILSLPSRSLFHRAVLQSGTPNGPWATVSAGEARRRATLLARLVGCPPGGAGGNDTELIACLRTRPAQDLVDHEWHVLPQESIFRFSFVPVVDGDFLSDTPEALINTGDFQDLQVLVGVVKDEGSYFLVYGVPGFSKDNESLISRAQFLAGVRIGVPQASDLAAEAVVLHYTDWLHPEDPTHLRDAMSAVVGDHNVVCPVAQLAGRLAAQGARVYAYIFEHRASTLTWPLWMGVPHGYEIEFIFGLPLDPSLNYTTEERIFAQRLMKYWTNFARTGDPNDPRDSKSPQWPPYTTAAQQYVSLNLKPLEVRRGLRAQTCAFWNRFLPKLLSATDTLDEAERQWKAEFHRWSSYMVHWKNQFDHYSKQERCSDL

Structure (SMILES) | ACHE inhibition in mouse brain (ACHE) | average spectral count for APEH (APEH) [spectral counts] | partial inhibition of PREPL suggested by ratio-of-ratio signals (PREPL) | IC50 (rat APEH) [nM] | DAGLB activity blocked (DAGLB)
CC(C)CC(O)(CC(C)C)c1cnn(C(=O)N2CCCC2)n1 [AA74-1] | not inhibited | 1 | 50-60% | 7 | 
O=C(N1CCCCC1Cc1ccccc1)n1cc(-c2ccc(-c3ccccc3)cc2)nn1 (centres unmarked) [KT109] |  |  |  |  | approximately 90%
